Laboratory results published in patent publication US20130252930A1 (BIOMARIN PHARMACEUTICAL INC., priority 2010, published 2013).
Where two headings read alike, the source gives them in different places.

Key:
[1] = Human liver microsome stability assay (Biological Example 8b); settings: liver microsomes, pH 7.4
Experimental: The reaction was started with addition of excess NADPH (5 mg/mL, 15 μL in 0.1 M potassium phosphate buffer, 1.0 mM EDTA, pH 7.4), the total volume is 45 μL (compound final concentration was 1 μM). […] 50 μL of the supernatant was transferred from each well into a 96-well sample plate containing 50 μL of ultra-pure water (Millipore) for LC-MS/MS analysis.

[2] = target: T1, CYP17 (human testicular microsome) (Homo sapiens, UniProt P05093); test: CYP17 enzymatic assay (IC50) (Biological Example 4); type: biochemical
T1 construct: using microsomal fraction from human testis (Celsis Cat #S00110) as the enzyme source; tissue Celsis S00110; host or cells: human testis microsomal fraction
T1 sequence (P05093 1-508): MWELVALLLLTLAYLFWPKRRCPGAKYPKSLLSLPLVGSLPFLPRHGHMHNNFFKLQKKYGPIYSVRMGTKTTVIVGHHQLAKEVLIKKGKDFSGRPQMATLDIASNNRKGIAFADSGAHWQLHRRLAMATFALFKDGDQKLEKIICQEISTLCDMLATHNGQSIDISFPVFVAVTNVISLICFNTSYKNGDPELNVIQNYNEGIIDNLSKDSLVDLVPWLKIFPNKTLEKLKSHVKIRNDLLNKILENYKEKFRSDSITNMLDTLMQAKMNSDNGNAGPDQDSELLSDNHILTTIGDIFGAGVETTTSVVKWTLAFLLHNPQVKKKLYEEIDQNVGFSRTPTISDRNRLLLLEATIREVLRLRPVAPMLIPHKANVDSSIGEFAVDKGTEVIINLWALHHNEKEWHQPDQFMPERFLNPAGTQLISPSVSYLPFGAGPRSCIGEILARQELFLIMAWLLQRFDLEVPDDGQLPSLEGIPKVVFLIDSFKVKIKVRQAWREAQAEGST

[3] = target: T1, CYP17 (human testicular microsome); test: CYP17 enzymatic assay (% inhibition at 1 nM) (Biological Example 12); type: biochemical; settings: compound at 1 nM
[4] = target: T2, Cyp21 enzyme (Human HEK 293-Cyp21 stable transfected cells) (Homo sapiens, UniProt P08686); test: CYP21-HEK293 enzymatic assay (IC50) (Biological Example 11); type: cell-based
T2 construct: expressed in transfected cells
T2 sequence (P08686 1-495): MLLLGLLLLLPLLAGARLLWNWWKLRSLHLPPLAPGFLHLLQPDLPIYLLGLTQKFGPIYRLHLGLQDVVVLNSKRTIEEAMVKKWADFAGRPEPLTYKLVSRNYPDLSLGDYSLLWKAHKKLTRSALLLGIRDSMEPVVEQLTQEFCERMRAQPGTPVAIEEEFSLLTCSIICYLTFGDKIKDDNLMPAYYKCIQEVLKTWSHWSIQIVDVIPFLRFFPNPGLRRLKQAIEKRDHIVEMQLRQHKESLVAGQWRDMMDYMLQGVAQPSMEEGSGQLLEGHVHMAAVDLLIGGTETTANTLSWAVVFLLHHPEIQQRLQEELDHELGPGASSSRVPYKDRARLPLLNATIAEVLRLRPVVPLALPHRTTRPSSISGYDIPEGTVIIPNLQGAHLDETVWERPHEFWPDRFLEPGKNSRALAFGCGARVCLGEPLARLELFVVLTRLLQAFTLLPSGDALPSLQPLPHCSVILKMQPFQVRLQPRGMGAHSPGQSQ

[5] = human testicular microsome, read-out: Biological Example No. 4: CYP17 enzymatic assay IC50
[6] = read-out: Biological Example No. 12: CYP17 enzymatic assay % inhibition at 1 nM
[7] = HEK 293-Cyp21 cells, read-out: Biological Example No. 11: CYP21-HEK293 enzymatic assay IC50
[8] = HEK 293-Cyp21 stable transfected cells, read-out: CYP21-HEK293 enzymatic assay IC50 (Biological Example No. 11)
[9] = human testicular microsome, read-out: CYP17 enzymatic assay IC50 (Biological Example No. 4)
[10] = read-out: CYP17 enzymatic assay % inhibition at 1 nM (Biological Example No. 12)
[11] = HEK 293-Cyp21 cells, read-out: CYP21-HEK293 enzymatic assay IC50 (Biological Example No. 11)

SMILES: C[C@]12CCNC(=O)C=C1C(F)CC1C2CC[C@]2(C)C(c3cccnc3)=CCC12 (stereo partly drawn) [Compound 370, (5aR,7aS)-12-fluoro-5a,7a-dimethyl-8-(pyridin-3-yl)-3,4,5,5a,5b,6,7,7a,10,10a,11,12-dodecahydrocyclopenta[5,6]naphtho[1,2-d]azepin-2(10bH)-one]
- half-life at 1 μM [1]: 1 to 50 min
- IC50 [2, 5]: < 11 nM
- inhibition at 0.001 µM [3, 6]: > 50%
- IC50 [4, 7]: > 1000 nM

SMILES: CC1C[C@@H]2[C@H](CC[C@]3(C)C(c4cccnc4)CC[C@@H]23)[C@@]2(C)C=CC(=O)C=C12 (stereo partly drawn) [Compound 421, (10R,13S)-6,10,13-trimethyl-17-(pyridin-3-yl)-6,7,8,9,10,11,12,13,14,15,16,17-dodecahydro-3H-cyclopenta[a]phenanthren-3-one]
- half-life at 1 μM [1]: 1 to 50 min
- IC50 [4, 8]: < 10 nM

SMILES: C[C@]12CC[C@H]3[C@@H](C=CC4=CC(=O)CC[C@@]43C)C1=CC=C2c1cccnc1 [Compound 289, (10R,13S)-10,13-dimethyl-17-(pyridin-3-yl)-8,9,10,11,12,13-hexahydro-1H-cyclopenta[a]phenanthren-3(2H)-one]
- half-life at 1 μM [1]: 1 to 50 min
- IC50 [2, 9]: < 11 nM
- inhibition at 0.001 µM [3, 10]: > 50%
- IC50 [4, 11]: 10 to 100 nM

SMILES: C[C@]12CCNC(=O)C=C1C1CC1[C@@H]1[C@@H]2CC[C@]2(C)C(c3cccnc3)=CC[C@@H]12 (stereo partly drawn) [Compound 382, (5aR,7aS)-5a,7a-dimethyl-8-(pyridin-3-yl)-3,4,5,5a,5b,6,7,7a,10,10a,10b,10c,11,11a-tetradecahydro-2H-cyclopenta[5,6]cyclopropa[3,4]naphtho[1,2-d]azepin-2-one]
- half-life at 1 μM [1]: 1 to 50 min
- IC50 [2, 5]: < 11 nM
- inhibition at 0.001 µM [3, 6]: > 50%
- IC50 [4, 7]: > 100 nM

SMILES: C=C1C[C@H]2C3=CC=C(c4cccnc4)[C@@]3(C)CC[C@@H]2[C@@]2(C)C=CC(=O)C=C12 [Compound 350, (10R,13S)-10,13-dimethyl-6-methylene-17-(pyridin-3-yl)-6,7,8,9,10,11,12,13-octahydro-3H-cyclopenta[a]phenanthren-3-one]
- half-life at 1 μM [1]: 1 to 50 min
- IC50 [4, 8]: < 10 nM

SMILES: C[C@]12CCC3C(C=CC4=C(O)C(=O)CC[C@@]43C)C1=CC=C2c1cccnc1 (stereo partly drawn) [Compound 297, (10R,13S)-4-hydroxy-10,13-dimethyl-17-(pyridin-3-yl)-8,9,10,11,12,13-hexahydro-1H-cyclopenta[a]phenanthren-3(2H)-one]
- half-life at 1 μM [1]: 1 to 50 min
- inhibition at 0.001 µM [3, 10]: > 50%
- IC50 [4, 11]: > 100 nM

SMILES: C[C@]12CCC(=O)C(O)=C1C=C[C@@H]1[C@@H]2CC[C@]2(C)C(c3cccnc3)=CC[C@@H]12 [Compound 301, (10R,13S)-4-hydroxy-10,13-dimethyl-17-(pyridin-3-yl)-8,9,10,11,12,13,14,15-octahydro-1H-cyclopenta[a]phenanthren-3(2H)-one]
- half-life at 1 μM [1]: 1 to 50 min
- inhibition at 0.001 µM [3, 10]: > 50%
- IC50 [4, 11]: > 1000 nM

SMILES: C[C@]12CCC(=O)C=C1C1CC1[C@@H]1[C@@H]2CC[C@]2(C)C(c3cccnc3)=CC[C@@H]12 (stereo partly drawn) [Compound 319, (4aR,6aS)-4a,6a-dimethyl-7-(pyridin-3-yl)-4,4a,4b,5,6,6a,9,9a,9b,9c,10,10a-dodecahydrocyclopenta[a]cyclopropa[l]phenanthren-2(3H)-one]
- half-life at 1 μM [1]: 1 to 50 min
- inhibition at 0.001 µM [3, 6]: > 50%
- IC50 [4, 7]: > 100 nM

SMILES: CC1C[C@@H]2[C@H](CC[C@]3(C)C(c4cccnc4)CC[C@@H]23)[C@@]2(C)CCC(=O)C=C12 (stereo partly drawn) [Compound 420, (10R,13S)-6,10,13-trimethyl-17-(pyridin-3-yl)-6,7,8,9,10,11,12,13,14,15,16,17-dodecahydro-1H-cyclopenta[a]phenanthren-3(2H)-one]
- half-life at 1 μM [1]: 1 to 50 min
- IC50 [4, 8]: < 10 nM

SMILES: CC1CC2C3=CC=C(c4cncc(F)c4)[C@@]3(C)CCC2[C@@]2(C)CCNC(=O)C=C12 (stereo partly drawn) [Compound 389, (5aR,7aS)-8-(5-fluoropyridin-3-yl)-5a,7a,12-trimethyl-3,4,5,5a,5b,6,7,7a,11,12-decahydrocyclopenta[5,6]naphtho[1,2-d]azepin-2(10bH)-one]
- half-life at 1 μM [1]: 1 to 50 min
- inhibition at 0.001 µM [3, 6]: 10 to 50%
- IC50 [4, 7]: 10 to 100 nM

SMILES: CC1C[C@H]2C3=CC=C(c4cccnc4)[C@@]3(C)CC[C@@H]2[C@@]2(C)CCC(=O)C=C12 (stereo partly drawn) [Compound 315, (10R,13S)-6,10,13-trimethyl-17-(pyridin-3-yl)-6,7,8,9,10,11,12,13-octahydro-1H-cyclopenta[a]phenanthren-3(2H)-one]
- half-life at 1 μM [1]: 1 to 50 min
- IC50 [2]: < 11 nM
- inhibition at 0.001 µM [3, 6]: > 50%
- IC50 [4, 7]: < 10 nM

SMILES: CC1CC2C(CC[C@]3(C)C(c4cccnc4)=CCC23)[C@@]2(C)CCC(=NO)C=C12 (stereo partly drawn) [Compound 361, (10R,13S)-6,10,13-trimethyl-17-(pyridin-3-yl)-6,7,8,9,10,11,12,13,14,15-decahydro-1H-cyclopenta[a]phenanthren-3(2H)-one oxime]
- half-life at 1 μM [1]: 1 to 50 min
- inhibition at 0.001 µM [3, 6]: 10 to 50%
- IC50 [4, 7]: > 100 nM

SMILES: C[C@]12CCC(=O)C=C1C=CC1C2CC[C@]2(C)C(c3cccnc3)=CCC12 (stereo partly drawn) [Compound 408, (10R,13S)-10,13-dimethyl-17-(pyridin-3-yl)-8,9,10,11,12,13,14,15-octahydro-1H-cyclopenta[a]phenanthren-3(2H)-one]
- half-life at 1 μM [1]: 1 to 50 min
- inhibition at 0.001 µM [3, 6]: > 50%
- IC50 [4, 7]: > 100 nM

SMILES: C[C@]12CCC3C(CCC4=CC(=O)CC[C@@]43C)C1=CC=C2c1cnccn1 (stereo partly drawn) [Compound 291, (10R,13S)-10,13-dimethyl-17-(pyrazin-2-yl)-6,7,8,9,10,11,12,13-octahydro-1H-cyclopenta[a]phenanthren-3(2H)-one]
- half-life at 1 μM [1]: 1 to 50 min
- inhibition at 0.001 µM [3, 10]: > 50%
- IC50 [4, 11]: > 100 nM

SMILES: C[C@]12CCC3C(CCC4=CC(=O)CC[C@@]43C)C1=CC=C2c1cncnc1 (stereo partly drawn) [Compound 471, (10R,13S)-10,13-dimethyl-17-(pyrimidin-5-yl)-6,7,8,9,10,11,12,13-octahydro-1H-cyclopenta[a]phenanthren-3(2H)-one]
- half-life at 1 μM [1]: 1 to 50 min
- IC50 [2, 9]: < 11 nM
- inhibition at 0.001 µM [3, 10]: > 50%
- IC50 [4, 11]: 10 to 100 nM

SMILES: CC1C[C@@H]2[C@H](CC[C@]3(C)C(c4cccnc4)CC[C@@H]23)[C@@]2(C)CCNC(=O)C=C12 (stereo partly drawn) [Compound 395, (5aR,7aS)-5a,7a,12-trimethyl-8-(pyridin-3-yl)-3,4,5,5a,5b,6,7,7a,8,9,10,10a,11,12-tetradecahydrocyclopenta[5,6]naphtho[1,2-d]azepin-2(10bH)-one]
- half-life at 1 μM [1]: 1 to 50 min
- IC50 [4, 8]: < 10 nM

SMILES: CCC1CC2C3=CC=C(c4cccnc4)[C@@]3(C)CCC2[C@@]2(C)CCC(=O)C=C12 (stereo partly drawn) [Compound 482, (10R,13S)-6-ethyl-10,13-dimethyl-17-(pyridin-3-yl)-6,7,8,9,10,11,12,13-octahydro-1H-cyclopenta[a]phenanthren-3(2H)-one]
- half-life at 1 μM [1]: 1 to 50 min
- IC50 [2]: < 11 nM
- inhibition at 0.001 µM [3, 6]: 10 to 50%
- IC50 [4, 7]: 10 to 100 nM

SMILES: C[C@]12CCC(=O)C=C1C(F)C[C@@H]1[C@@H]2CC[C@]2(C)C(c3cncc(F)c3)=CC[C@@H]12 (stereo partly drawn) [Compound 325, (10R,13S)-6-fluoro-17-(5-fluoropyridin-3-yl)-10,13-dimethyl-6,7,8,9,10,11,12,13,14,15-decahydro-1H-cyclopenta[a]phenanthren-3(2H)-one]
- half-life at 1 μM [1]: 1 to 50 min
- IC50 [2, 5]: < 11 nM
- inhibition at 0.001 µM [3, 6]: > 50%
- IC50 [4, 7]: > 1000 nM
